Laboratory results taken from patent US10183950B2, “Thienopyrimidine inhibitors of atypical protein kinase C” (Cancer Research Technology Limited, priority 2011, dated 2019).
pIC50: −log10 of the molar value.

molecular target: T1, full-length human PKCι (Homo sapiens, UniProt P41743); assay: PKCι IC50 IMAP fluorescence polarisation assay, full-length enzyme; assay type: biochemical; conditions: full length PKCi at 15 μM ATP; read-out: IC50 in IMAP assay against full length PKCi
T1 construct: Recombinant, full-length human PKCι expressed in Sf21 insect cells is also commercially available; purchased; host or cells: Sf21 insect cells
T1 sequence (P41743 1-596): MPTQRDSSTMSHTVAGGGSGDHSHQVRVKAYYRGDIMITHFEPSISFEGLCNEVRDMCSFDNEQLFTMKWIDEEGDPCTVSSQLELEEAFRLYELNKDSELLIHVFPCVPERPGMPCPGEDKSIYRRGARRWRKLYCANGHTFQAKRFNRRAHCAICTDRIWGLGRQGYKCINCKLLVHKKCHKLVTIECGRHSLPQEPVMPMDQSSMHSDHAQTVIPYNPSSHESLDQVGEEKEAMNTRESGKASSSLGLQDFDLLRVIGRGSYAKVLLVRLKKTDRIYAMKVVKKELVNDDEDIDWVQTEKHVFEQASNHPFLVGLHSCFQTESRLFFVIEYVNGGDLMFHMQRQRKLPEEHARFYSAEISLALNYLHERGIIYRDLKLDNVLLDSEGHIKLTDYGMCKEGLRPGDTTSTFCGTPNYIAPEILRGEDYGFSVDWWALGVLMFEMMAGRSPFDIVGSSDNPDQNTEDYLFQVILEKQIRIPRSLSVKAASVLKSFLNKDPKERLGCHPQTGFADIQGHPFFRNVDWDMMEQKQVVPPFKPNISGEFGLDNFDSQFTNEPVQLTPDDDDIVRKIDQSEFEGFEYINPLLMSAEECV

| SMILES | pIC50 |
| --- | --- |
| Brc1csc2c(N3CCNCC3)nc(-c3ccncc3)nc12 [compound 350, 7-Bromo-4-piperazin-1-yl-2-pyridin-4-yl-thieno[3,2-d]pyrimidine] | 6.00 to 7.00 |
| Cc1sc2c(NCC(C)N)nc(-c3ccncc3)nc2c1Br (stereo in doubt) [compound 330, (R)-N*1*-(7-Bromo-6-methyl-2-pyridin-4-yl-thieno[3,2-d]pyrimidin-4-yl)-propane-1,2-diamine] | 5.00 to 6.00 |
| NCc1ccc(-c2csc3c(NCC(N)Cc4ccccc4)nc(-c4ccncc4F)nc23)cc1 (stereo in doubt) [compound 427, (R)-N*1*-[7-(4-Aminomethyl-phenyl)-2-(3-fluoro-pyridin-4-yl)-thieno[3,2-d]pyrimidin-4-yl]-3-phenyl-propane-1,2-diamine] | 5.00 to 6.00 |
| CN(C)S(=O)(=O)c1ccc(Nc2cc(-c3nc(N[C@@H]4CCNC4)c4sccc4n3)ccn2)cc1 [compound 610, N,N-Dimethyl-4-{4-[4-((R)-pyrrolidin-3-ylamino)-thieno[3,2-d]pyrimidin-2-yl]-pyridin-2-ylamino}-benzenesulfonamide] | 5.00 to 6.00 |
| NCCNc1nc(-c2ccncc2)nc2c(Br)csc12 [compound 349, N*1*-(7-Bromo-2-pyridin-4-yl-thieno[3,2-d]pyrimidin-4-yl)-ethane-1,2-diamine] | 6.00 to 7.00 |
| CC(C)(O)C#Cc1csc2c(NC[C@@H](N)Cc3ccccc3)nc(-c3ccncc3)nc12 [compound 510, 4-[4-((S)-2-Amino-3-phenyl-propylamino)-2-pyridin-4-yl-thieno[3,2-d]pyrimidin-7-yl]-2-methyl-but-3-yn-2-ol] | > 7.00 |
| Cc1sc2c(NC[C@@H](N)Cc3ccccc3)nc(-c3ccncc3)nc2c1-c1ccc(F)nc1 [compound 438, (S)-N*1*-[7-(6-Fluoro-pyridin-3-yl)-6-methyl-2-pyridin-4-yl-thieno[3,2-d]pyrimidin-4-yl]-3-phenyl-propane-1,2-diamine] | 5.00 to 6.00 |
| F[C@H]1CN(Cc2ccccc2)C[C@@H]1Nc1nc(-c2ccncc2)nc2ccsc12 [compound 315, ((3S,4S)-1-Benzyl-4-fluoro-pyrrolidin-3-yl)-(2-pyridin-4-yl-thieno[3,2-d]pyrimidin-4-yl)-amine] | 4.40 to 5.00 |
| C[C@@H](Nc1cc(-c2nc(N[C@@H]3CCNC3)c3sccc3n2)ccn1)c1ccccc1 [compound 586, {2-[2-((R)-1-Phenyl-ethylamino)-pyridin-4-yl]-thieno[3,2-d]pyrimidin-4-yl}-(R)-pyrrolidin-3-yl-amine] | 6.00 to 7.00 |
| CC(C)(O)CC#Cc1csc2c(NC[C@@H](N)Cc3ccccc3)nc(-c3ccncc3)nc12 [compound 537, 5-[4-((S)-2-Amino-3-phenyl-propylamino)-2-pyridin-4-yl-thieno[3,2-d]pyrimidin-7-yl]-2-methyl-pent-4-yn-2-ol] | 6.00 to 7.00 |
| N[C@H](CNc1nc(-c2ccncc2F)nc2c(-c3ccc[nH]3)csc12)Cc1ccccc1 [compound 419, (S)-N*1*-[2-(3-Fluoro-pyridin-4-yl)-7-(1H-pyrrol-2-yl)-thieno[3,2-d]pyrimidin-4-yl]-3-phenyl-propane-1,2-diamine] | 6.00 to 7.00 |
| N[C@H](CNc1nc(-c2ccncc2)nc2c(C#CC3(O)CCC3)csc12)Cc1ccccc1 [compound 539, 1-[4-((S)-2-Amino-3-phenyl-propylamino)-2-pyridin-4-yl-thieno[3,2-d]pyrimidin-7-ylethynyl]-cyclobutanol] | > 7.00 |
| Cc1noc(C)c1-c1csc2c(NCC(N)Cc3ccccc3)nc(-c3ccncc3F)nc12 (stereo in doubt) [compound 428, (R)-N*1*-[7-(3,5-Dimethyl-isoxazol-4-yl)-2-(3-fluoro-pyridin-4-yl)-thieno[3,2-d]pyrimidin-4-yl]-3-phenyl-propane-1,2-diamine] | 5.00 to 6.00 |
| CC[C@H](Nc1cc(-c2nc(N[C@@H]3CCNC3)c3sccc3n2)ccn1)c1ccccc1 [compound 589, {2-[2-((S)-1-Phenyl-propylamino)-pyridin-4-yl]-thieno[3,2-d]pyrimidin-4-yl}-(R)-pyrrolidin-3-yl-amine] | 5.00 to 6.00 |
| C#Cc1csc2c(N[C@@H]3CCNC3)nc(-c3ccncc3)nc12 [compound 559, (7-Ethynyl-2-pyridin-4-yl-thieno[3,2-d]pyrimidin-4-yl)-(R)-pyrrolidin-3-yl-amine] | 6.00 to 7.00 |
| N[C@H](CNc1nc(-c2ccncc2)nc2c(Nc3ccccc3)csc12)Cc1ccccc1 [compound 485, N*4*-((S)-2-Amino-3-phenyl-propyl)-N*7*-phenyl-2-pyridin-4-yl-thieno[3,2-d]pyrimidine-4,7-diamine] | 6.00 to 7.00 |
| O[C@H]1CNC[C@@H]1Nc1nc(-c2ccncc2)nc2ccsc12 [compound 319, (3S,4S)-4-(2-Pyridin-4-yl-thieno[3,2-d]pyrimidin-4-ylamino)-pyrrolidin-3-ol] | 5.00 to 6.00 |
| CC(C)(C)c1sc2c(NC[C@@H](N)Cc3ccccc3)nc(-c3ccncc3)nc2c1-c1ccn[nH]1 [compound 468, (S)-N*1*-[6-tert-Butyl-7-(2H-pyrazol-3-yl)-2-pyridin-4-yl-thieno[3,2-d]pyrimidin-4-yl]-3-phenyl-propane-1,2-diamine] | 5.00 to 6.00 |
| N[C@H](CNc1nc(-c2ccncc2F)nc2c(C#CCCO)csc12)Cc1ccccc1 [compound 501, 4-[4-((S)-2-Amino-3-phenyl-propylamino)-2-(3-fluoro-pyridin-4-yl)-thieno[3,2-d]pyrimidin-7-yl]-but-3-yn-1-ol] | 6.00 to 7.00 |
| Fc1cccc(Nc2csc3c(N[C@@H]4CCNC4)nc(-c4ccncc4F)nc23)c1 [compound 499, N*7*-(3-Fluoro-phenyl)-2-(3-fluoro-pyridin-4-yl)-N*4*-(R)-pyrrolidin-3-yl-thieno[3,2-d]pyrimidine-4,7-diamine] | 5.00 to 6.00 |
| Fc1c(-c2nc(N[C@@H]3CCNC3)c3sccc3n2)ccnc1Nc1cnccn1 [compound 585, {2-[3-Fluoro-2-(pyrazin-2-ylamino)-pyridin-4-yl]-thieno[3,2-d]pyrimidin-4-yl}-(R)-pyrrolidin-3-yl-amine] | 5.00 to 6.00 |
| Cc1sc2c(N[C@@H]3CCNC3)nc(-c3ccncc3)nc2c1Br [compound 328, (7-Bromo-6-methyl-2-pyridin-4-yl-thieno[3,2-d]pyrimidin-4-yl)-(R)-pyrrolidin-3-yl-amine] | 6.00 to 7.00 |
| N[C@H](CNc1nc(-c2ccncc2)nc2c(-c3cccnc3)csc12)Cc1ccccc1 [compound 410, (S)-3-Phenyl-N*1*-(2-pyridin-4-yl-7-pyridin-3-yl-thieno[3,2-d]pyrimidin-4-yl)-propane-1,2-diamine] | 5.00 to 6.00 |
| CCc1cc(-c2csc3c(NC[C@@H](N)Cc4ccccc4)nc(-c4ccncc4)nc23)no1 [compound 570, (S)-N*1*-[7-(5-Ethyl-isoxazol-3-yl)-2-pyridin-4-yl-thieno[3,2-d]pyrimidin-4-yl]-3-phenyl-propane-1,2-diamine] | 5.00 to 6.00 |
| N[C@H](CNc1nc(-c2ccncc2)nc2c(C#Cc3cc[nH]n3)csc12)Cc1ccccc1 [compound 549, (S)-3-Phenyl-N*1*-[7-(1H-pyrazol-3-ylethynyl)-2-pyridin-4-yl-thieno[3,2-d]pyrimidin-4-yl]-propane-1,2-diamine] | > 7.00 |
| N[C@H](CNc1nc(-c2ccncc2)nc2c(Cl)csc12)Cc1ccccc1 [compound 306, (S)—N*1*-(7-Chloro-2-pyridin-4-yl-thieno[3,2-d]pyrimidin-4-yl)-3-phenyl-propane-1,2-diamine] | > 7.00 |

same assay, conditions: full length PKCi at 15 μM ATP; read-out: IC50 in IMAP assay against full length PKCi (Activity)

| SMILES | pIC50 |
| --- | --- |
| NCCNc1nc(-c2ccncc2)nc2sc3c(c12)CCN(C(=O)C1CCC1)C3 [compound 109, [4-(2-Amino-ethylamino)-2-pyridin-4-yl-5,8-dihydro-6H-pyrido[4′,3′:4,5]thieno[2,3-d]pyrimidin-7-yl]-cyclobutyl-methanone] | 4.40 to 5.00 |
| COc1ccccc1C[C@H](N)CNc1nc(-c2ccncc2)nc2sc3c(c12)CCSC3 [compound 64, (S)-3-(2-Methoxy-phenyl)-N*1*-(2-pyridin-4-yl-5,8-dihydro-6H-thio-pyrano[4′,3′:4,5]thieno[2,3-d]pyrimidin-4-yl)-propane-1,2-diamine] | 4.40 to 5.00 |
| NCCNc1nc(-c2ccncc2)nc2sc3c(c12)CCN(C(=O)C1CC1)C3 [compound 108, [4-(2-Amino-ethylamino)-2-pyridin-4-yl-5,8-dihydro-6H-pyrido[4′,3′:4,5]thieno[2,3-d]pyrimidin-7-yl]-cyclopropyl-methanone] | 4.40 to 5.00 |
| Cc1ccc(C[C@H](N)CNc2nc(-c3ccncc3)nc3sc4c(c23)CCCC4)cc1 [compound 46] | 5.00 to 6.00 |
| N[C@@H](CNc1nc(-c2ccncc2)nc2sc3c(c12)CCN(C(=O)c1ccccc1)C3)Cc1ccccc1 [compound 73, [4-((R)-2-Amino-3-phenyl-propylamino)-2-pyridin-4-yl-5,8-dihydro-6H-pyrido[4′,3′:4,5]thieno[2,3-d]pyrimidin-7-yl]-phenyl-methanone] | 5.00 to 6.00 |
| COc1ccc(C[C@H](N)CNc2nc(-c3ccncc3)nc3sc4c(c23)CCCC4)cc1 [compound 47, (S)-3-(4-Methoxy-phenyl)-N*1*-(2-pyridin-4-yl-5,6,7,8-tetrahydro-benzo[4,5]thieno[2,3-d]pyrimidin-4-yl)-propane-1,2-diamine] | 6.00 to 7.00 |
